Test results reported in patent US7098206B2, “Pharmaceutically active morpholinol” (SmithKline Beecham Corporation, priority 1998, dated 2006).
Where two headings read alike, the source gives them in different places.

Columns and labels:
[1] = target: T1, dopamine uptake, synaptosomes from rat caudoputamen (Rattus norvegicus, UniProt P23977); experiment: In vitro synaptosomal [3H]-dopamine uptake; format: biochemical; conditions: for IC50: rat caudoputamen synaptosomes
T1 construct: Synaptosomes for use in obtaining in vitro uptake data were prepared from hypothalamus or striatum by gently homogenizing the tissue; from tissue; host or cells: rat caudoputamen (striatum) synaptosomes
Text: (§1) Similarities and differences. Molecular Pharmacology, 21: p.

[2] = target: T2, noradrenaline (NA) uptake, synaptosomes from rat hypothalamus (Rattus norvegicus, UniProt Q63380); experiment: In vitro synaptosomal [3H]-noradrenaline uptake; format: biochemical; conditions: for IC50: rat hypothalamus synaptosomes
T2 construct: Synaptosomes for use in obtaining in vitro uptake data were prepared from hypothalamus or striatum by gently homogenizing the tissue; from tissue; host or cells: rat hypothalamus synaptosomes
Text: as §1

[3] = test system: TBZ-induced behavioural depression; experiment: Tetrabenazine-induced behavioural depression; format: in vivo, Male, CD-1 Mice; conditions: for effect on tetrabenazine-induced behavioural depression: 25 mg/kg (ip), FIG. 1; for dose-effect against TBZ-induced depression: 30 minutes prior to TBZ, n=6, FIGS. 2 and 3
Protocol: FIG. 2. Dose Response of Compound of Formula I Against TBZ-Induced Depression (Compounds administered 30 minutes prior to TBZ, Male, CD-1 Mice, i.p., n=6).
FIG. 3. Dose Response of Compound of Formula II Against TBZ-Induced Depression (Compounds administered 30 minutes prior to TBZ, Male, CD-1 Mice, i.p., n=6).
Tetrabenazine(TBZ)-induced behavioural depression was used as an in vivo measure of antidepressant activity. The test has been validated with a wide range of antidepressants, known to act through noradrenergic mechanisms (Cooper B. R. et al, “Animal models used in the prediction of antidepressant effects in man”, J. Clin. Psychiatry 44: 63–66, 1983). Moreover, the test was also used to identify Wellbutrin® as an anti-depressant. Briefly, animals were injected with the candidate agent (p.o. or i.p.) 30 minutes before receiving an i.p. injection of tetrabenazine (35 mg/kg, as the HCl salt—prepared fresh for each use). Assessments were performed 30 minutes thereafter and included: locomotor activity (1–4 scale); ptosis (1–4 scale) and body temperature as described previously (Cooper, B. R., J. L. Howard, and F. E. Soroko, Animal models used in prediction of antidepressant effects in man (Journal of Clinical Psychiatry, 44: p. 63–6, 1983). In all studies, the scientist performing the assessments was blind to the treatments. All parameters were weighted equally to give a “lumped” score (X) through the following algorithm: X=(1+Ptosis score)/(Activity score*[Temp,treated/Temp,control]

[4] = Dose-ranging safety study: serious adverse events (seizures and deaths); format: in vivo; conditions: for seizures observed, in words: 100 mg/kg p.o.
Protocol: Additional dose-ranging studies were performed to determine the range of safe doses for the isomers and the racemate. […]

[5] = target: T3, serotonin uptake, synaptosomes from rat hypothalamus (Rattus norvegicus, UniProt P31652); conditions: at 30 mM (so in the source)
Protocol: (§2) In vitro uptake was determined, as reported previously, using synaptosomes prepared from rat caudoputamen (for dopamine uptake) and hypothalamus (for NA and serotonin uptake) using [^3H]-dopamine, [^3H]-NA and [^3H]-serotonin as transport substrates, respectively.
(§3) Synaptosomes for use in obtaining in vitro uptake data were prepared from hypothalamus or striatum by gently homogenizing the tissue in a 0.3 M sucrose/25 mM Tris pH 7.4 buffer containing iproniazid phosphate to inhibit monoamine oxidase. The homogenate was centrifuged at 1100×g at 4° C. for 10 min and the supernatant was used for uptake studies. […] Under these conditions uptake was linear with respect to both for substrate and tissue (with <5% total substrate transported). Non-specific uptake was defined as uptake at 0° C. [^3H]-substrate, which had been transported into synaptosomes, was separated from free [^3H]-substrate by filtration over GF/B filters and washing with cold Krebs-Henseleit buffer. The filters were counted for tritum in a liquid scintillation spectrometer.

[6] = target: T3, serotonin uptake, synaptosomes from rat hypothalamus; experiment: biochemical
Protocol: as §2, §3

[7] = test system: MPTP-induced Parkinsonian marmosets; experiment: MPTP-treatment Parkinson's disease model; format: in vivo; conditions: hydrochloride salt, once weekly by oral gavage, MPTP-treated marmosets
Protocol: Locomotor deficits and motor disability were induced in marmosets by the administration of MPTP 2 mg/kg sc on five consecutive days. After the acute effects of MPTP administration had been overcome, bradykinesia, rigidity and loss of vocalisation remained. The compound of formula (I) (as its hydrochloride salt) was administered once weekly by oral gavage, freshly dissolved in 10% sucrose solution with dosages calculated as the free base. […] Assessment of motor disablities was by an observer through a one-way mirror: alertness, checking movements, posture, balance/co-ordination, reaction, vocalisation and motility were each scored. A score of zero indicated a “normally” behaing animal, while a maximum total score of 18 in the monitoring period indicated a severely disabled animal.

[8] = test system: CCI-induced decrease in mechanical paw withdrawal threshold; experiment: Chronic constriction injury model of mononeuropathy; format: in vivo, male Random Hooded rats; conditions: CCI rats, FIG. 6
Text: Mononeuropathy was reproduced in male Random Hooded rats (180–250 g) using the Chronic Constriction Injury (CCI) model as described by Bennett and Xie (1988). Under Isoflurane anaesthesia, the common left sciatic nerve of the rats was exposed at mid thigh level. Four ligatures of Chromic gut (4.0) were tied loosely around the nerve with a 1 mm spacing between each. The wound was then closed and secured with suture staples. The surgical procedure was identical for the sham operated animals except the sciatic nerve was not ligated. The animals were allowed a period of 12 days to recover from the surgery before any behavioural testing began.
The effect of the compound of formula (I) (administered as the hydrochloride salt at 20 mgkg^−1 t.i.d. p.o. chronically for a period of 7 days) on CCI-induced decrease in mechanical paw withdrawal threshold was measured using an algesymeter (Randall & Selitto, 1957).

[9] = test system: sexual behaviour of male mice; experiment: Mouse sexual behaviour model; format: in vivo, mice (C57BL/6 inbred strain); conditions: hydrochloride salt
Protocol: Male (10 weeks old) and female (8 weeks old) mice (C57BL/6 inbred strain, Charles River, Como (Italy) that had no reproductive or copulatory experience were used in the study. Females were brought into behavioral oestrus with s.c. injections of 0.03 mg estradiol benzoate approximately 48 hr before testing and 0.1 mg progesterone, in sesame oil, 4 hr before testing.
The compound of formula (I) (as its hydrochloride salt) was dissolved in saline to provide a solution for intraperitoneal injection at a dose of 3 mg/kg, with a dose volume of 10 ml/kg. Dosing was performed one hour prior to the test.
Tests were conducted in Perspex arenas, 30 cm in diameter and 50 cm high, which were placed in the cage in which males had been placed individually one day prior to test. The sexual behaviour was filmed remotely under red light for 30 min using a video camera and recorder, the test starting immediately after placing a female mouse into the male's cage. Behavior parameters recorded were (i) the extent of male/female interaction, (ii) the extent of genital sniffing, and (iii) the mount frequency (the number of male mounts).

[10] = read-out: IC50, [3H]-Dopamine Uptake
[11] = 3 mg/kg intraperitoneal, one hour prior to 30 min test
[12] = intraperitoneal injection, versus control

T2 sequence (Q63380 1-617): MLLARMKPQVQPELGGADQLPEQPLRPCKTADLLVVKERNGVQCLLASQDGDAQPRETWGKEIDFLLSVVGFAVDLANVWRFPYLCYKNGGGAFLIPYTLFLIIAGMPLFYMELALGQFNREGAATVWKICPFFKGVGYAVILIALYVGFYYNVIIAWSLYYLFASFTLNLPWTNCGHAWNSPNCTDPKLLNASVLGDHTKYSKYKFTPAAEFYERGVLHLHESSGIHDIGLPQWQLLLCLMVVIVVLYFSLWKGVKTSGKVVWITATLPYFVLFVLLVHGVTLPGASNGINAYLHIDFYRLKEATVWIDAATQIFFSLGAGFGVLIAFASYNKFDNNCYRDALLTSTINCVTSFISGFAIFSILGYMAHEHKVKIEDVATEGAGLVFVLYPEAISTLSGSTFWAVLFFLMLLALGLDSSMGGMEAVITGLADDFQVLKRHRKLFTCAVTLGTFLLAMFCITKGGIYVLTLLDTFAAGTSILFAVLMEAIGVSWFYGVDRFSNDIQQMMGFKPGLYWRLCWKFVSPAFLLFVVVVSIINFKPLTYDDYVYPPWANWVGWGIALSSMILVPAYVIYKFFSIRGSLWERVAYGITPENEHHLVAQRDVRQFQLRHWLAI
T3 sequence (P31652 whole entry): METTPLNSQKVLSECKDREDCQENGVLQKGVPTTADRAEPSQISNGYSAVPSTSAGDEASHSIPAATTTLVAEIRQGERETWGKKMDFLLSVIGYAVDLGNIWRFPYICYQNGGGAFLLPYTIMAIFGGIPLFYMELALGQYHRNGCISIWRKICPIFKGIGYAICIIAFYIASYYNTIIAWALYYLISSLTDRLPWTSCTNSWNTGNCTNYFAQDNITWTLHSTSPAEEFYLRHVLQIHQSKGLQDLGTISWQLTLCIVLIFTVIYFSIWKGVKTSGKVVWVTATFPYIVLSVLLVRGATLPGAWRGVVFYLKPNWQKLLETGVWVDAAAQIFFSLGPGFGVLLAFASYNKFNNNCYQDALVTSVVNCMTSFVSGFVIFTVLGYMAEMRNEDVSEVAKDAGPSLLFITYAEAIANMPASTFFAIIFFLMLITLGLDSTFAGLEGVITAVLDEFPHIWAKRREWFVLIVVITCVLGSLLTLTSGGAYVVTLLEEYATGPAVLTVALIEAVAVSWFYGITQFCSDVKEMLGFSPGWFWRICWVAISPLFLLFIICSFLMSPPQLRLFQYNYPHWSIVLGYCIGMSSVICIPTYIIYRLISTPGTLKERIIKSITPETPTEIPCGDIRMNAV
T1 sequence (P23977 whole entry): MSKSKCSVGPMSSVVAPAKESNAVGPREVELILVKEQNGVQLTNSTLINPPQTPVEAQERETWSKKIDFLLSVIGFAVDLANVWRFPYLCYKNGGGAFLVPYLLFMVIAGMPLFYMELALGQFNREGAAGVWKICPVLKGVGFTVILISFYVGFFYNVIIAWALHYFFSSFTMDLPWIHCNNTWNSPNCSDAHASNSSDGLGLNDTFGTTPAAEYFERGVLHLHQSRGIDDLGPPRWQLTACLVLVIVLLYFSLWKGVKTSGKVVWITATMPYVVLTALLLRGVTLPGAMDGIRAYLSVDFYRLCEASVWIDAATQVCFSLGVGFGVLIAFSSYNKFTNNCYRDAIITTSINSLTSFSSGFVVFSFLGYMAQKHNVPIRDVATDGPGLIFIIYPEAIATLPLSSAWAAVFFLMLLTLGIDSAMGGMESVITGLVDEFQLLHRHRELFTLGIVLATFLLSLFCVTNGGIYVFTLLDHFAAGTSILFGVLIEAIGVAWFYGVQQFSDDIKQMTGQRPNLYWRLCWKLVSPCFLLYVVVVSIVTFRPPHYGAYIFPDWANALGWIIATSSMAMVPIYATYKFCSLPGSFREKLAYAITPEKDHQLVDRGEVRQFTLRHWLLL

Structure (SMILES) | IC50 [1, 10] [µM] | IC50 [2] [µM] | effect on tetrabenazine-induced behavioural depression [3] | dose-effect against TBZ-induced depression ([3]; i.p.) | seizures observed, in words [4] | % Died ([4]; i.p., 100 mg/kg) [%] | Seizures (%) ([4]; i.p., 100 mg/kg) | Time to Death ([4]; i.p., 100 mg/kg) [min] | Time to Seizures ([4]; i.p., 100 mg/kg) [min] | % Died ([4]; i.p., 300 mg/kg) [%] | Seizures (%) ([4]; i.p., 300 mg/kg) | Time to Death ([4]; i.p., 300 mg/kg) [min] | Time to Seizures ([4]; i.p., 300 mg/kg) [min] | % Died ([4]; p.o., 100 mg/kg) [%] | Seizures (%) ([4]; p.o., 100 mg/kg) | Time to Seizures ([4]; p.o., 100 mg/kg) [min] | % Died ([4]; p.o., 300 mg/kg) [%] | Seizures (%) ([4]; p.o., 300 mg/kg) | Time to Death ([4]; p.o., 300 mg/kg) [min] | Time to Seizures ([4]; p.o., 300 mg/kg) [min] | other results
CC(NC(C)(C)C)C(=O)c1cccc(Cl)c1.Cl (racemic) [Bupropion, (±)-1-(3-chlorophenyl)-2-[(1,1-dimethylethyl)amino]-1-propanone hydrochloride] | 1.9 | 2.2 | abolished the tetrabenazine-induced behavioural depression | – | – | – | – | – | – | – | – | – | – | – | – | – | – | – | – | – | –
C[C@H]1NC(C)(C)CO[C@]1(O)c1cccc(Cl)c1 (single isomer, unassigned) [Formula (II)] | > 100 | > 30 | only modest activity | did not possess dose-related activity | seizures were observed | 100 | 20 | 7 | 5 | 100 | 100 | 6 | 1.1 | 0 | 100 | 7.2 | 100 | 100 | 7 | 6.8 | inhibition of dopamine (DA) uptake at a fixed concentration ([1]; at 30 μM): inactive; inhibition of noradrenaline (NA) uptake at a fixed concentration ([2]; at a concentration of 30 μM): ineffective; effect on TBZ-induced depression at the top dose ([3]; 50 mg/kg, i.p., FIG. 3): appeared to worsen the animal's condition; inhibition of serotonin uptake at a fixed concentration [5]: Neither compound inhibited serotonin uptake; IC50 [6]: > 100 µM
CN(C)CCC=C1c2ccccc2CCc2ccccc21 [amitryptyline] | – | – | abolished the tetrabenazine-induced behavioural depression | – | – | – | – | – | – | – | – | – | – | – | – | – | – | – | – | – | –
CC1NC(C)(C)COC1(O)c1cccc(Cl)c1 (stereo not drawn) [Racemate, (+/−)-(2R*,3R*)-2-(3-chlorophenyl)-3,5,5-trimethyl-2-morpholinol] | – | – | abolished the tetrabenazine-induced behavioural depression | – | – | – | – | – | – | – | – | – | – | – | – | – | – | – | – | – | –
C[C@@H]1NC(C)(C)CO[C@@]1(O)c1cccc(Cl)c1 (single isomer, unassigned) [Formula (I)] | 9.3 | – | abolished the tetrabenazine-induced behavioural depression | sharp increase in activity between 3 mg/kg and 6 mg/kg | – | 0 | 100 | – | 3.93 | 100 | 100 | 6 | 3.95 | 0 | 0 | – | 0 | 100 | – | 11.23 | IC50 ([1]; IC50, [3H]-Dopamine Uptake): ~10 µM; potency as inhibitor of dopamine uptake, fold less potent ([1]; unlike Wellbutrin, comparison as worded): approximately 10 fold; potency as NA inhibitor relative to Wellbutrin ([2]; versus Wellbutrin): approximately twice as potent; locomotor deficits ([7]; FIG. 4): reversed the locomotor deficits; motor disability ([7]; FIG. 5): reversed; mechanical paw withdrawal threshold on cessation of treatment ([8]; after 20 mgkg−1 t.i.d. p.o. for 7 days): falling back towards CCI-operated vehicle-treated levels; mechanical paw withdrawal threshold during chronic dosing ([8]; hydrochloride salt, 20 mgkg−1 t.i.d. p.o. for 7 days): reversal was maintained throughout the chronic dosing period; mechanical paw withdrawal threshold after a single dose ([8]; hydrochloride salt, single dose 20 mgkg−1 p.o.): immediate reversal of the fall in paw withdrawal threshold back towards sham operated levels; M/F interaction [9, 11]: *228.8 ± 30.3 sec; Mount frequency, No. of events ± SEM [9, 11]: 6.6 ± 1.7; Time spent in genital sniffing [9, 11]: *203.6 ± 30.1 sec; genital sniffing, change in words [9, 12]: statistically significant (unpaired t-test) increase; male/female interaction, change in words [9, 12]: statistically significant (unpaired t-test) increase; mount frequency, change in words [9, 12]: trend towards increasing mount frequency; % Died ([4]; i.p., 100 mg/kg, listed as compound of formula I): No deaths were observed; % Died ([4]; p.o., 300 mg/kg, listed as compound of formula I): no deaths were observed; inhibition of serotonin uptake at a fixed concentration [5]: Neither compound inhibited serotonin uptake; IC50 [6]: > 30 µM
CC1NC(C)(C)COC1(O)c1cccc(Cl)c1.Cl (racemic) [Racemate, (+/−)-(2R*,3R*)-2-(3-chlorophenyl)-3,5,5-trimethyl-2-morpholinol] | – | – | – | – | seizures were observed | 20 | 100 | 14 | 3 | 100 | 100 | 3 | 3 | 0 | 100 | 9.2 | 80 | 100 | 7 | 6.8 | –
